# Test results: patent US7504508B2, “PGD2 receptor antagonists for the treatment of inflammatory diseases” (Millennium Pharmaceuticals, Inc., priority 2002, dated 2009)
# Target: T1, cloned human CRTH2 receptor (Homo sapiens, UniProt Q9Y5Y4)
# T1 construct: purchased Biosignal; host or cells: HEK-293 cells stably expressing human CRTH2 and G-alpha-16 (membranes)
# T1 sequence (Q9Y5Y4 1-395): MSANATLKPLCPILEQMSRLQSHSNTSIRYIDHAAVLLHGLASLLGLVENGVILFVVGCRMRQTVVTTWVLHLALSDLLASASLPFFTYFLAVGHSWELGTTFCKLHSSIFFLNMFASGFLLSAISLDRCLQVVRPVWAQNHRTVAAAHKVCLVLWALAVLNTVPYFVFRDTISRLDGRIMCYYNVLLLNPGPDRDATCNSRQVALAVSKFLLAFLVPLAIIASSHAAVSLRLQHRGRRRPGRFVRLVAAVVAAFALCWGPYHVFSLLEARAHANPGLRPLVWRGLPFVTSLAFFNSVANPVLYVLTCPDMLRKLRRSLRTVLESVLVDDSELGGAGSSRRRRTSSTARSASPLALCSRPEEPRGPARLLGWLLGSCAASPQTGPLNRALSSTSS
# Test: Radioligand membrane binding assay: inhibition of [3H] PGD2 binding to CRTH2 (Scintillation Proximity Assay)
# Conditions: inhibition of [3H] PGD2 binding to membranes of HEK-293 cells stably expressing human CRTH2; SPA; 10 point curve from 10 μM; room temperature, approximately 2 hours
# Procedure: This radioligand membrane binding assay evaluates the ability of compounds to inhibit [^3H] Prostaglandin D2 (PGD2) binding to the cloned human CRTH2 receptor stably expressed in HEK-293 cells (expressing human CRTh2 receptor and α subunit or the heteronimeric G protein 16 were prepared by Biosignal Company) using Scintillation Proximity Assay.
# A binding buffer containing 50 mM Tris-HCl (pH 7.5), 5 mM MgCl2 and 1 mM EDTA was prepared immediately prior to performing the assay. A bead/membrane solution at twice the final assay concentration comprising membranes (membranes bought from Biosignal) from the HEK-293 cells cloned to express CRTH2 receptor bound to and [3H] PGD2 at twotimes the final assay concentration were prepared and stored on ice before adding to wells. Cold PGD2 at twenty times the final assay concentration was prepared and stored on ice before adding to wells defining non-specific binding (NSB) corning plates #3653 were used for this assay.
# 10 mM stock concentrations of compounds in 100% DMSO were prepared and stored at room temperature. A 10 point concentration response curve was then constructed for each compound, starting at 10 μM (final assay concentration). The compounds were prepared at 40 times final assay concentrations with nine consequent-3-fold dilutions.
# 0.1 μl of each concentration of compound were added to the appropriate well of the 384 plate and 2 μl of cold PGD2 was added into the wells defining NSB. 20 μl of [^3H] PGD2 and then 20 μl of 2× of bead/membrane solution were then added to each well.
# The plates were allowed to incubate at room temperature for approximately 2 hours and then counted on Packard Topcount using SPA tritium protocol for 1 minute/well.
# The percent inhibition of PGD2 binding (PGD2 used at the KD value or lower) to the HEK-293 cell membranes was determined, the assay was always run as duplicate for n=1 for a total of n=2.
row,SMILES,Ki [µM]
1,"CCC(=O)N(c1ccc(Cl)cc1)[C@@H]1C[C@H](COC)N(C(=O)c2ccc(F)cc2)c2ccccc21 (racemic) [Compound B-107, (±)-Cis-N-(4-chloro-phenyl)-N-[1-(4-fluoro-benzoyl)-2-methoxymethyl-1,2,3,4-tetrahydro-quinolin-4-yl]-propionamide]",< 10
2,"CCC(=O)N(c1ccc(Cl)cc1)[C@@H]1C[C@H](c2ccccc2)N(C(=O)c2ccc(F)cc2)c2ccccc21 (racemic) [Compound B-108, (±)-Cis-N-(4-chloro-phenyl)-N-[1-(4-fluoro-benzoyl)-2-phenyl-1,2,3,4-tetrahydro-quinolin-4-yl]-propionamide]",< 10
3,"CCC(=O)N(c1ccc(Cl)cc1)[C@@H]1C[C@H](C(F)(F)F)N(C(=O)c2ccc(F)cc2)c2ccc(OC)cc21 (racemic) [Compound B-109, (±)-Cis-N-(4-chloro-phenyl)-N-[1-(4-fluoro-benzoyl)-6-methoxy-2-trifluoromethyl-1,2,3,4-tetrahydro-quinolin-4-yl]-propionamide]",< 10
4,"CCC(=O)N(c1ccc(Cl)cc1)[C@@H]1C[C@H](C(F)(F)F)N(C(=O)c2cccc(OC)c2)c2ccc(OC)cc21 (racemic) [Compound B-110, (±)-Cis-N-(4-chloro-phenyl)-N-[6-methoxy-1-(3-methoxy-benzoyl)-2-trifluoromethyl-1,2,3,4-tetrahydro-quinolin-4-yl]-propionamide]",< 10
5,"CCC(=O)N(c1ccc(Cl)cc1)[C@@H]1C[C@H](C(F)(F)F)N(C(=O)c2ccco2)c2ccc(OC)cc21 (racemic) [Compound B-111, (±)-Cis-N-(4-chloro-phenyl)-N-[1-(furan-2-carbonyl)-6-methoxy-2-trifluoromethyl-1,2,3,4-tetrahydro-quinolin-4-yl]-propionamide]",< 10
6,"CCC(=O)N(c1ccc(Cl)cc1)[C@@H]1C[C@H](Cc2ccccc2)N(C(=O)c2ccc(F)cc2)c2ccccc21 (racemic) [Compound B-112, (±)-Cis-N-[2-benzyl-1-(4-fluoro-benzoyl)-1,2,3,4-tetrahydro-quinolin-4-yl]-N-(4-chloro-phenyl)-propionamide]",< 10
7,"CC(=O)N(c1ccccc1)[C@H]1C[C@@H](C)N(C(=O)c2ccc(C(C)(C)C)cc2)c2ccccc21 [Compound A-8, (2R,4S)-cis-N-[1-(4-tert-butyl-benzoyl)-2-methyl-1,2,3,4-tetrahydro-quinolin-4-yl]-N-phenyl-acetamide]",< 60
8,"CC(=O)N(c1ccccc1)[C@H]1C[C@@H](C)N(C(=O)c2cccs2)c2ccccc21 [Compound A-11, (2R,4S)-N-[2-methyl-1-(thiophene-2-carbonyl)-1,2,3,4-tetrahydro-quinolin-4-yl]-N-phenyl-acetamide]",< 10
9,"CCC(=O)N(c1ccccc1)[C@H]1C[C@@H](C)N(C(=O)c2ccc(C3CCN(C(C)=O)CC3)cc2)c2ccccc21 [Compound A-51, (2R,4S)-cis-N-{1-[4-(1-acetyl-piperidin-4-yl)-benzoyl]-2-methyl-1,2,3,4-tetrahydro-quinolin-4-yl}-N-phenyl-propionamide]",< 10
10,CC(=O)N(c1ccccc1)C1CC(C)N(C(=O)c2ccc(F)cc2)c2ccccc21 (stereo not shown) [Compound A-53],< 60
11,CC(=O)N(c1ccccc1)[C@H]1C[C@@H](C)N(C(=O)c2ccc(F)cc2)c2ccccc21 [Compound A-58],< 60
12,"CC(=O)N(c1ccccc1)[C@H]1C[C@@H](C)N(C(=O)c2ccno2)c2ccccc21 [Compound A-70, (2R,4S)-cis-N-[1-(isoxazole-5-carbonyl)-2-methyl-1,2,3,4-tetrahydro-quinolin-4-yl]-N-phenyl-acetamide]",< 10
13,"CCC(=O)N(c1ccccc1)[C@H]1C[C@@H](C)N(C(=O)c2ccc(N3CCOCC3)cc2)c2ccccc21 [Compound A-120, (2R,4S)-cis-N-[2-methyl-1-(4-morpholin-4-yl-benzoyl)-1,2,3,4-tetrahydro-quinolin-4-yl]-N-phenyl-propionamide]",< 10
14,"COc1cccc(C(=O)N2c3ccccc3[C@@H](N(C(C)=O)c3ccccc3)C[C@H]2C)c1 [Compound A-126, (2R,4S)-cis-N-[1-(3-methoxy-benzoyl)-2-methyl-1,2,3,4-tetrahydro-quinolin-4-yl]-N-phenyl-acetamide]",< 60
15,CC(=O)N(c1ccccc1)C1CC(C)N(C(=O)c2sc(-c3ccccc3)nc2C)c2ccccc21 (stereo not shown) [Compound A-156],< 10
16,"CC(=O)N(c1ccc(Cl)cc1)[C@H]1C[C@@H](C)N(C(=O)c2cccs2)c2ccccc21 [Compound B-7, (2R,4S)-cis-N-(4-chloro-phenyl)-N-[2-methyl-1-(thiophene-2-carbonyl)-1,2,3,4-tetrahydro-quinolin-4-yl]-acetamide]",< 10
17,"COc1cccc(C(=O)N2c3ccccc3[C@@H](N(C(C)=O)c3ccc(Cl)cc3)C[C@H]2C)c1 [Compound B-9, (2R,4S)-cis-N-(4-chloro-phenyl)-N-[1-(3-methoxy-benzoyl)-2-methyl-1,2,3,4-tetrahydro-quinolin-4-yl]-acetamide]",< 10
18,"Cc1ccc(C(=O)N2c3ccccc3[C@@H](N(C(=O)C(C)C)c3ccc(Cl)cc3)C[C@H]2C)s1 [Compound B-11, (2R,4S)-cis-N-(4-Chloro-phenyl)-N-[2-methyl-1-(5-methyl-thiophene-2-carbonyl)-1,2,3,4-tetrahydro-quinolin-4-yl]-isobutyramide]",< 10
19,"CCC(=O)N(c1ccc(Cl)cc1)[C@H]1C[C@@H](C)N(C(=O)c2ccc(OC)cc2)c2ccccc21 [Compound B-18, (2R,4S)-cis-N-(4-chloro-phenyl)-N-[1-(4-methoxy-benzoyl)-2-methyl-1,2,3,4-tetrahydro-quinolin-4-yl]-propionamide]",< 10
20,"CC(=O)N(c1ccc(Cl)cc1)[C@H]1C[C@@H](C)N(C(=O)c2ccc(F)cc2)c2ccccc21 [Compound B-26, (2R,4S)-cis-N-(4-chloro-phenyl)-N-[1-(4-fluoro-benzoyl)-2-methyl-1,2,3,4-tetrahydro-quinolin-4-yl]-acetamide]",< 10
21,"CC(=O)N(c1ccc(Cl)cc1)[C@H]1C[C@@H](C)N(C(=O)c2ccc(C)s2)c2ccccc21 [Compound B-28, (2R,4S)-cis-N-(4-Chloro-phenyl)-N-[2-methyl-1-(5-methyl-thiophene-2-carbonyl)-1,2,3,4-tetrahydro-quinolin-4-yl]-acetamide]",< 10
22,"COc1ccc(C(=O)N2c3ccccc3[C@@H](N(C(C)=O)c3ccc(Cl)cc3)C[C@H]2C)cc1 [Compound B-34, (2R,4S)-cis-N-(4-Chloro-phenyl)-N-[1-(4-methoxy-benzoyl)-2-methyl-1,2,3,4-tetrahydro-quinolin-4-yl]-acetamide]",< 10
23,"COc1ccc(C(=O)N2c3cc(C)ccc3[C@@H](N(C(C)=O)c3ccc(Cl)cc3)C[C@H]2C)cc1 [Compound B-58, (2R,4S)-cis-N-(4-chloro-phenyl)-N-[1-(4-methoxy-benzoyl)-2,7-dimethyl-1,2,3,4-tetrahydro-quinolin-4-yl]-acetamide]",< 10
24,CCOCCOc1ccc2c(c1)C(N(C(=O)CC)c1ccc(Cl)cc1)CC(C)N2C(=O)c1ccc(F)cc1 (stereo not shown) [Compound B-68],< 10
25,"CC(=O)N(c1ccc(Cl)cc1)[C@@H]1C[C@H](C)N(C(=O)c2ccc(/C=C/C(=O)O)cc2)c2ccccc21 [Compound C-33, (2S,4R)-3-(4-{4-[Acetyl-(4-chloro-phenyl)-amino]-2-methyl-3,4-dihydro-2H-quinoline-1-carbonyl}-phenyl)-acrylic acid]",< 10
